Test results as given in US20210277102A1, “COMPOSITIONS AND METHODS FOR TREATING A TUMOR SUPPRESSOR DEFICIENT CANCER” (BETH ISRAEL DEACONESS MEDICAL CENTER, INC., priority 2016, published 2021).

Tested on: Pten^pc−/−; Pml^pc−/− prostate tumors
Experiment: In vivo CXCR2 antagonist treatment of Pten^pc−/−; Pml^pc−/− mice (MRI, flow cytometry)
Set-up: species or system mouse
Details: for tumor growth (tumor volume by MRI): Pml^pc−/− mice, 5 mg/kg intraperitoneal daily for 14 days, vs vehicle, 5 mg/kg
Protocol: Mice were allocated at random to experimental groups and studies were performed in an unblended manner. For treatment with the CXCR2 antagonist, SB225002 (Cayman Chemical #13336) was dissolved in DMSO (10 mg/ml) and diluted in vehicle (0.9% NaCl, 0.3% Tween 80) for in vivo administration. Mice (4 months of age) were treated daily for 10 days by intraperitoneal injection (5 mg/kg) and prostate tumor tissue (anterior lobes) was subjected to Flow Cytometry and histological analysis. For MRI analysis, mice (4 months of age) were treated daily for 21 days (Pten^pc-/-; Zbtb7a^pc-/-), for 14 days (Pten^pc-/-; Trp53^pc-/-) or for 14 days (Pten^pc-/-; Pml^pc-/-) by intraperitoneal injection (5 mg/kg). For depletion of Gr-1+/CD11b+ cells, Ly6G-depletion antibody (1A8, BioXcell) and control Rat IgG2a antibody (BioXcell) were diluted in phosphate-buffered saline (PBS) for in vivo administration. Mice (4 months of age) were treated every other day for 10 days by intraperitoneal injection (200-300 μg/mouse). InVivoMAb anti-mouse Ly6G/Ly6C (Gr-1) antibody, clone RB6-8C5 (BE0075, BioXcell), and control Rat IgG2b antibody (BE0090, BioXcell) were diluted in PBS and Pten^pc-/-; Trp53^pc-/- mice were treated every other day for 14 days by intraperitoneal injection (200 μg/mouse). For neutralization of CXCL5, anti-Mouse CXCL5 antibody (Leinco Technologies) and control Rat IgG2a antibody (BioXcell) were diluted in PBS and injected every other day for 21 days by intraperitoneal injection (20 μg/mouse). Tumor volume quantification was performed by using VivoQuant and Image J software. All mouse prostate MRI imaging analysis was performed at Small Animal Imaging Core at BIDMC and acquired on an […] Model M2 1T tabletop scanner. For Flow Cytometry, spleen and lymph node single cell suspensions were prepared by mashing the tissue in 2% FBS/PBS. […] All staining mixtures were analyzed on a BD LSR II flow cytometer (Becton Dickinson). Resulting profiles were further processed and analyzed using the FlowJo 8.7 software.

In the case of `O=C(Nc1ccc([N+](=O)[O-])cc1O)Nc1ccccc1Br` [SB225002], the “tumor growth (tumor volume by MRI)” value was “did not show any significant response”, the “tumor growth (tumor volume by MRI)” value (listed as CXCR2i) was “did not respond” and the “intra-tumoral Gr-1+/CD11b+ cells (flow cytometry)” value (Pml^pc−/− prostate tumors after treatment) was “decrease of Gr-1+/CD11b+ cells”.
